pIC50, ΔTm and Activity data for 26 compounds are collected here from ChEMBL document CHEMBL4390646, “A fragment-based approach towards the discovery of N-substituted tropinones as inhibitors of Mycobacterium tuberculosis transcriptional regulator EthR2” (Eur J Med Chem, 2019).

A short description of assay [1]: Inhibition of recombinant Mycobacterium tuberculosis EthR2 expressed in golden hamster BHK21 cells assessed as reduction in EthR2 and DNA interaction measured after 48 hrs by p-nitrophenyl phosphate based SEAP reporter gene assay. Type of assay: cell-based.
The test system of assay [2] is Mycobacterium tuberculosis. Description: Binding affinity to recombinant Mycobacterium tuberculosis EthR2 assessed as change in melting temperature at 20 uM by SYPRO Orange dye based fluorescence thermal shift assay.
The subject of assay [3] is Mycobacterium tuberculosis. Description: Inhibition of EthR2 in Mycobacterium tuberculosis assessed as potentiation of ETH bioactivation up to 30 uM using 0.1 ug/ml ETH.
Assay [4] deals with Mycobacterium tuberculosis. Put plainly: Binding affinity to recombinant Mycobacterium tuberculosis EthR2 assessed as change in melting temperature at 1 mM by Nano Orange dye based fluorescence thermal shift assay.
In assay [5] the target is HTH-type transcriptional regulator EthR (Mycobacterium tuberculosis) (UniProt P9WMC1). Description: Binding affinity to Mycobacterium tuberculosis EthR at 30 uM by mammalian reporter assay. For orientation: Reporter assays use an easily measured gene product as a stand-in for the process of interest.
Chain of HTH-type transcriptional regulator EthR (Mycobacterium tuberculosis) (P9WMC1 whole entry): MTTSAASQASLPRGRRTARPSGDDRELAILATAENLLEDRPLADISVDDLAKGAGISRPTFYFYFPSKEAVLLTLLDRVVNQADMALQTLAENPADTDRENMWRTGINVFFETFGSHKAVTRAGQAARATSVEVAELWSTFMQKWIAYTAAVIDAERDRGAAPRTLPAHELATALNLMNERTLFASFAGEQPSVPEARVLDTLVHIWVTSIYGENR

Calls of active or inactive are those of the source. No cut-off for these calls is given here. Where only a bound is given, the exact number is not on record here.

A word on the pIC50: it is the IC50 on a negative log10 scale, so that one unit is a factor of ten. As a reminder, the ΔTm is the change in melting temperature against a reference sample. Consider `O=C1CC2CCC(C1)N2CCc1ccc(C(F)(F)F)cc1`, for which the pIC50 in assay [1] was found to be 6.7. Also, the ΔTm in assay [2] was determined as 1.8 °C. Further, the result in assay [3] was inactive.
For `O=C1CC2CCCC(C1)N2CCc1ccc(Cl)cc1`, the pIC50 in assay [1] came out at 5.8. Further, in assay [2], the ΔTm amounted to 0.6 °C. The outcome in assay [3] was inactive.
On to `O=C1CC2CCC(C1)N2CCc1ccc(Br)cc1`, for which the pIC50 in assay [1] amounted to 6.1. In addition, in assay [2], the ΔTm was found to be 1 °C. The result in assay [3] was inactive.
Consider `O=C1CC2CCC(C1)N2CCc1ccc([N+](=O)[O-])cc1`, for which the ΔTm in assay [2] is -0.2 °C.
`CC(C)Sc1nc2[nH]cnc(N)c-2n1`: the ΔTm in assay [4] worked out at 2.5 °C. Further, in assay [1], the negative-log IC50 (pIC50) amounted to 5.1.
Take `O=C1CC2CCC(C1)N2CCc1cccc(C(F)(F)F)c1`: the ΔTm in assay [2] was -0.1 °C.
For the compound `N=C(N)Nc1nc2ccccc2s1`, in assay [4], the ΔTm was 2.8 °C. Besides, in assay [1], the negative-log IC50 (pIC50) is recorded as less than 4.
Take `CC(Cc1ccc(Cl)cc1)N1C2CCC1CC(=O)C2` (stereo not drawn): the ΔTm in assay [2] was determined as 0.1 °C.
For `FC(F)=C1CC2CCC(C1)N2CCc1ccc(Cl)cc1`, in assay [1], the pIC50 is on record as less than 4.8. In addition, the shift in melting temperature (ΔTm) in assay [2] was determined as 0.6 °C.
For the compound `COc1ccc(CCN2C3CCC2CC(=O)C3)cc1`, the ΔTm in assay [2] is 0.3 °C.
Consider `O=C1CC2CCC(C1)N2CCc1ccccc1`, for which the negative-log IC50 (pIC50) in assay [1] amounted to 5. Moreover, the ΔTm in assay [2] came to 0.1 °C. For the same compound, the outcome in assay [3] was inactive.
As to `O=C1C2CCCC1CN(CCc1ccc(Cl)cc1)C2`, the ΔTm in assay [2] is -0.1 °C.
Regarding `O=C1CC2CCC(C1)N2C(=O)Cc1ccc(Cl)cc1`, the ΔTm in assay [2] was -0.1 °C.
Same read-out and setting: with `O=C1CC2CCC(C1)N2CCc1ccccc1C(F)(F)F` the figure was 0.3 °C.
With `O=C1CC2CCC(C1)N2CCc1ccncc1`, in assay [2], the ΔTm was determined as 0 °C. Besides, the result in assay [3] was inactive.
Turning to `O=C1CC2CCC(C1)N2CCc1ccc(Cl)c(Cl)c1`, in assay [1], the pIC50 turned out to be 6. Besides, the ΔTm in assay [2] worked out at 1 °C. In addition, the outcome in assay [3] was inactive.
With `O=C1CC2CCC(C1)N2CCc1ccc(F)cc1`, the pIC50 in assay [1] amounted to 5.6. The ΔTm in assay [2] came to 0.4 °C. Besides, in assay [3], the result was inactive.
With `Clc1ccc(CCN2C3CCC2CC2(C3)OCCO2)cc1`, the negative-log IC50 (pIC50) in assay [1] was less than 4.8. Further, in assay [2], the ΔTm stood at 0.1 °C.
Regarding `Clc1cccc(CN2CCNCC2)c1`, in assay [4], the ΔTm was found to be 3.1 °C. For the same compound, in assay [1], the negative logarithm of the IC50 (pIC50) is on record as 5.5.
Consider `O=C1C2CCC1CN(CCc1ccc(Cl)cc1)C2`, for which, in assay [2], the ΔTm was determined as 0.1 °C.
With `O=C1CC2CCC(C1)N2CCc1ccc(Cl)cc1`, the ΔTm in assay [4] came to 3.4 °C; in assay [2] it was 0.6 °C. Moreover, the outcome in assay [5] and in assay [3] was inactive. The pIC50 in assay [1] was 6.
As for `Cc1ccc(CCN2C3CCC2CC(=O)C3)cc1`, the pIC50 in assay [1] came to 5.8. Further, the ΔTm in assay [2] came to 0.6 °C. In assay [3], the result was inactive.
For the compound `CCCNC(=O)Nc1cccc(C)n1`, the ΔTm in assay [4] turned out to be 2.2 °C. Besides, the pIC50 in assay [1] was less than 4.
As for `O=C1CC2CCC(C1)N2Cc1ccc(Cl)cc1`, the shift in melting temperature (ΔTm) in assay [2] was determined as 0 °C.
For `O=C1CC2CCC(C1)N2CCc1ccc(Cl)cc1Cl`, in assay [1], the pIC50 worked out at 5.7. In addition, the ΔTm in assay [2] was 0.2 °C.
The like results for `COC1(OC)CC2CCC(C1)N2CCc1ccc(Cl)cc1` were, in that order, less than 4.8 and 0.2 °C.
